Ends that are not written are not given here. Peptide text beside a SMILES is read from it. * marks the point of attachment. RhodamineB = CCN(CC)c1ccc2c(-c3ccccc3C(=O)*)c3ccc(=[N+](CC)CC)cc-3oc2c1; 5FAM = O=C1OC2(c3ccc(O)cc3Oc3cc(O)ccc32)c2ccc(C(=O)*)cc21
What was measured:
[1] = CellTiter-Blue cell viability assay, MDA-MB-231; assay type: cell-based, human; conditions: human, MDA-MB-231 cells, mean ± SD, triplicates of three independent experiments; for IC90 at 24 h: Table 1, concentration causing 90% cell death, peptide 0.01-100 μM, read-out: Cytotoxicity MDA-MB-231 cells IC90; for IC50 at 24 h: Table 1, peptide 0.01-100 μM, read-out: Cytotoxicity MDA-MB-231 cells IC50
Procedure: (§1) Peptides cytotoxicity against both HBEC-5i and MDA-MB-231 cells was determined using CellTiter-Blue® Cell Viability Assay, according to the manufacturer’s instructions. The assay is based on the ability of viable cells to reduce resazurin into resorufin, a highly fluorescent metabolite. […] Therefore, using this methodology is possible to distinguish between metabolic and non-metabolic cells and indirectly determine the cytotoxicity of peptides. Briefly, HBEC-5i and MDA-MB-231 cells were carefully detached from T-flasks, as described previously, and seeded 15,000/100 and 10,000/100 μL, respectively, in 96-well plates (Corning, United States) and incubated for 24 h. After medium removal, cells were washed two times with 1× PBS and 100 μL of previously diluted peptides (range between 0.01 and 100 μM) in either DMEM or DMEM:F12 medium were added to MDA-MB-231 or HBEC-5i cells, respectively. After 24 h incubation, cells were washed two times with 1× PBS, and 20 μL of CellTiter-Blue® Reagent (diluted in 100 μL of medium) was added to each well and incubated for 3 h in a humidified atmosphere of 5% CO2 at 37°C. The fluorescence intensity was measured at λ with an excitation of 560 nm and maximum emission at 590 nm using the infinite F200 TECAN plate reader. Medium and 1% Triton X-100-containing medium were used as positive controls (100% cell viability) and negative controls (0% cell viability), respectively. Cell viability (%) was determined using the following equation:
(§2) (7) CellViability=FP-FNC/FPC-FNC×100
(§3) Fp is the fluorescence intensity of peptide-treated cells, FNC is the fluorescence intensity for negative controls, and FPC is the fluorescence intensity for positive controls.
(§4) Experiments were performed on different days using independently grown cell cultures.
(§5) FIGURE 4 In vitro cytotoxicity unlabeled- and labeled-peptides. (A,B) Cytotoxicity against HBEC-5i cells. (C,D) Cytotoxicity against MDA-MB-231 cells. 1.5 × 10^4 and 1.0 × 10^4 cells of HBEC-5i and MDA-MB-231 cells, respectively, were incubated with various concentrations of peptides (range from 0.01 to 100 μM). The percentage of viability was determined using CellTiter® Blue reagent assay. […] Error bars, S.D.

[2] = system: MDA-MB-231 cells; experiment: CellTiter-Blue cell viability assay, MDA-MB-231; assay type: cell-based, human; conditions: Table 1, concentration causing 10% cell death, 24 h, peptide 0.01-100 μM, mean ± SD, triplicates of three independent experiments
Procedure: as §1, §2, §3, §4, §5

[3] = system: human RBCs; experiment: Hemolytic activity on human red blood cells; conditions: Table 1, human RBCs in 1x PBS pH 7.4, 24 h, 37°C, peptide 0.01-100 μM, mean ± SD, triplicates of three independent experiments; for Hemolytic activity HC10: concentration causing 10% hemolysis, hemoglobin absorbance 570 nm; for Hemolytic activity HC50: concentration causing 50% hemolysis; for Hemolytic activity HC50 / Hemolytic activity HC90: absorbance 570 nm; for Hemolytic activity HC90: concentration causing 90% hemolysis
Procedure: Fresh human blood was collected in EDTA tubes and centrifuged at 1,000 × g for 10 min at 4°C. The supernatant was discharged, and the pellet containing RBCs was washed three times with 1× PBS (137 mM NaCl, 2.7 mM KCl, 10 mM Na2HPO4, and 1.8 mM KH2PO4, pH 7.4) and resuspended in 1× PBS to obtain a 2.0% (v/v) suspension. Then, RBCs were added to centrifuge tubes containing two-fold serially diluted peptides to a final concentration ranging from 0.01 to 100 μM. The suspension was incubated for 24 h at 37°C with gentle stirring. After that, samples were centrifuged for 2 min at 1,000 × g. Supernatants were transferred to 96-well plates, and the hemoglobin released measured by absorbance at 570 nm in an Infinite F200 TECAN plate reader. 1× PBS with no peptides and Triton X-100 at 1 and 4% (v/v) were used as negative and positive controls, respectively. Hemolytic activity (%) was determined using the following equation:
(2) Hemolyticactivity(%)=AbsPT-AbsNC/AbsPC-AbsNC
where, AbsPT is the absorbance of treated samples, AbsNC is the absorbance from negative control, and AbsPC absorbance from positive control.
HC50 values were determined using the GraphPad Prism 7.0 software using a log(inhibitor) vs. normalized response. Experiments were performed on different days using independent blood donors.
(range from 0.01 to 100 μM). The percentage of hemolysis was determined by the absorbance of hemoglobin released into the supernatant. Melittin was included as a control peptide with hemolytic properties. The values were obtained from triplicates of three independent experiments. Error bars, S.D.

[4] = system: HBEC-5i cells (in vitro BBB model); experiment: In vitro BBB translocation across HBEC-5i transwell monolayer; assay type: in vitro ADME, human; conditions: labeled peptide, quantified by fluorescence emission; HBEC-5i monolayer on PET transwell 1.0 μm pores, apical to basolateral, 10 μM, 24 h, DMEM:F12 without phenol red; mean ± SD, triplicates of three independent experiments
Description: HBEC-5i cells were allowed to grow until confluence in a gelatin-coated T-flask. Then, cells were carefully harvested with trypsin-EDTA (Gibco/Thermo Fisher, United States) and seeded 8,000 cells/well to 0.1% gelatin solution coated tissue culture inserts [transparent polyester (PET) membrane with 1.0 μm pores] for 24-well plates (BD Falcon, United States). During 8 days, the medium was changed every 2 days. After 8 days, cells were washed two times with 1× PBS and once with DMEM:F12 medium without phenol red (Gibco/Thermo Fisher, United States). Then, peptides diluted in DMEM:F12 medium without phenol red to a final concentration of 10 μM were added to the apical side of the in vitro BBB model (Figure 1). Experiments were performed on different days using independently grown cell cultures.
FIGURE 1 Scheme of an in vitro BBB transwell membrane system. Human brain endothelial cells (HBEC-5i) are cultured as monolayer on the apical side of a polyester (PET) transwell insert (1.0 μm pore size). Then, 10 μM of peptides are added to the apical side, and the translocation measured as the amount detected on the basolateral side.
The translocation of peptides labeled with different fluorophores was determined by fluorescence emission. After 24 h incubation, samples from the apical and basolateral side were collected and analyzed. Fluorescence was measured using the infinite F200 TECAN plate reader. The percentage (%) of translocation was calculated using the following equation:
(3) Translocation(%)=(Fi-Fcells/Fpeptide-FMedium)×100
Fi is the fluorescence intensity recovered, Fcells is the fluorescence intensity recovered from cells without peptide incubation, Fpeptide is the fluorescence intensity of total peptide initially added to the transwell apical side, and FMedium is the fluorescence intensity of the medium.
The translocation of unlabeled peptides was determined by the calculation of the respective area under the curve (AUC) in the reversed phase HPLC chromatograms. After 24 h incubation, samples from the apical and basolateral side were collected and analyzed by HPLC on a PerkinElmer Series 200 pump coupled to a PerkinElmer Series 200 UV/Vis Detector on a Luca C18 column (4.6 mm × 50 mm, 3 μm, Phenomenex, United States), eluting with linear gradients of HCOOH/MeCN (0.1%, v/v) into HCOOH/H2O (0.1%, v/v) over 15 min at 1 mL/min. UV detection was λ = 220 nm. The percentage (%) of translocation was calculated using the following equation:
(4) Translocation(%)=(AUCi/AUCpeptide)×100
AUCi is the AUC of peptide recovered and AUCpeptide is the AUC of total peptide initially added to the transwell apical side.

[5] = system: HBEC-5i cells; experiment: CellTiter-Blue cell viability assay, HBEC-5i; assay type: cell-based, human; conditions: peptide 0.01-100 μM, mean ± SD, triplicates of three independent experiments; for IC50: Table 1, 24 h, read-out: Cytotoxicity HBEC-5i cells IC50; for Cytotoxicity HBEC-5i cells IC10: Table 1, concentration causing 10% cell death; for Cytotoxicity HBEC-5i cells IC10 / Cytotoxicity HBEC-5i cells IC90: 24 h; for Cytotoxicity HBEC-5i cells IC90: Table 1, concentration causing 90% cell death
Procedure: as §1, §2, §3, §4, §5

[6] = CellTiter-Blue cell viability assay, HBEC-5i; assay type: cell-based, human; conditions: human, HBEC-5i cells, Table 1, peptide 0.01-100 μM, mean ± SD, triplicates of three independent experiments, read-out: Cytotoxicity HBEC-5i cells IC50
Procedure: as §1, §2, §3, §4, §5

| Molecule | IC90 at 24 h [1] [µM] | IC50 at 24 h [1] [µM] | Cytotoxicity MDA-MB-231 cells IC10 [2] [µM] | Hemolytic activity HC10 [3] [µM] | Hemolytic activity HC50 [3] [µM] | Hemolytic activity HC90 [3] [µM] | Translocation (%) [4] [%] | IC50 [5] [µM] | Cytotoxicity HBEC-5i cells IC10 [5] [µM] | Cytotoxicity HBEC-5i cells IC90 [5] [µM] | CC50 at 24 h [6] [µM] |
| --- | --- | --- | --- | --- | --- | --- | --- | --- | --- | --- | --- |
| CCN(CC)c1ccc2c(-c3ccccc3C(=O)N[C@@H](Cc3c[nH]c4ccccc34)C(=O)N[C@@H](CCCNC(=N)N)C(=O)N[C@@H](CCCNC(=N)N)C(=O)N[C@@H](CCCNC(=N)N)C(=O)N[C@@H](Cc3ccc(O)cc3)C(=O)N[C@@H](CCCNC(=N)N)C(=O)N[C@@H](CCCNC(=N)N)C(=O)N[C@@H](Cc3c[nH]c4ccccc34)C(=O)N[C@@H](CCCNC(=N)N)C(=O)N[C@@H](CCCNC(=N)N)C(=O)N[C@@H](CCCNC(=N)N)C(=O)N[C@@H](CCCNC(=N)N)C(=O)N[C@@H](CCCNC(=N)N)C(=O)N[C@@H](Cc3c[nH]c4ccccc34)C(=O)N[C@@H](CCCNC(=N)N)C(=O)N[C@@H](CCCNC(=N)N)C(=O)N[C@@H](CCCNC(=N)N)C(=O)N3CCC[C@H]3C(=O)N[C@@H](CCCNC(=N)N)C(=O)N[C@@H](CCCNC(=N)N)C(N)=O)c3ccc(=[N+](CC)CC)cc-3oc2c1 [RhB-vCPP2319] (RhodamineB-WRRRYRRWRRRRRWRRRPRR-NH2) | 16.6 ± 1.31 | 4.11 ± 1.04 | 1.13 ± 0.64 | 2.43 ± 0.32 | 23.88 ± 2.24 | >200 |  |  |  |  |  |
| TF3-SGTQEEY-amide [TF3-PepNeg] |  |  |  | >200 | >200 | >200 | 53.69 ± 2.94 | > 200 | >200 | >200 |  |
| CC[C@H](C)[C@H](NC(=O)[C@H](CCCCN)NC(=O)[C@H](CCCCN)NC(=O)[C@H](CC(C)C)NC(=O)[C@H](CCCNC(=N)N)NC(=O)[C@H](CCCCN)NC(=O)[C@H](CCCCN)NC(=O)c1ccccc1-c1c2ccc(=[N+](CC)CC)cc-2oc2cc(N(CC)CC)ccc12)C(=O)N[C@@H](Cc1ccccc1)C(=O)N[C@@H](CCCCN)C(=O)N[C@@H](CCCCN)C(=O)N1CCC[C@H]1C(=O)N[C@@H](CCSC)C(=O)N[C@H](C(=O)N[C@H](C(=O)NCC(=O)N[C@H](C(=O)N[C@H](C(=O)N[C@H](C(=O)N1CCC[C@H]1C(=O)N[C@@H](Cc1ccccc1)C(N)=O)[C@@H](C)CC)[C@@H](C)O)C(C)C)[C@@H](C)CC)C(C)C [RhB-Ctn[15-34]] (RhodamineB-KKRLKKIFKKPMVIGVTIPF-NH2) | > 200 | > 200 | 2.97 ± 0.98 | 3.29 ± 1.32 | 61.43 ± 4.33 | >200 |  |  |  |  |  |
| TF3-AGILKRW-amide [TF3-PepH3] |  |  |  | >200 | >200 | >200 | 56.74 ± 3.89 | > 200 | 184.9 ± 6.57 | >200 |  |
| C[C@@H](O)[C@H](NC(=O)CNC(=O)[C@H](CO)NC(=O)c1ccc2c(c1)C(=O)OC21c2ccc(O)cc2Oc2cc(O)ccc21)C(=O)N[C@@H](CCC(N)=O)C(=O)N[C@@H](CCC(=O)O)C(=O)N[C@@H](CCC(=O)O)C(=O)N[C@@H](Cc1ccc(O)cc1)C(N)=O [CF-PepNeg] (5FAM-SGTQEEY-NH2) |  |  |  |  |  |  | 56.01 ± 3.49 |  | >200 |  | > 200 |
| CC[C@H](C)[C@H](NC(=O)[C@H](CCCCN)NC(=O)[C@H](CCCCN)NC(=O)[C@H](CC(C)C)NC(=O)[C@H](CCCNC(=N)N)NC(=O)[C@H](CCCCN)NC(=O)[C@H](CCCCN)NC(=O)c1ccc2c(c1)C(=O)OC21c2ccc(O)cc2Oc2cc(O)ccc21)C(=O)N[C@@H](Cc1ccccc1)C(=O)N[C@@H](CCCCN)C(=O)N[C@@H](CCCCN)C(=O)N1CCC[C@H]1C(=O)N[C@@H](CCSC)C(=O)N[C@H](C(=O)N[C@H](C(=O)NCC(=O)N[C@H](C(=O)N[C@H](C(=O)N[C@H](C(=O)N1CCC[C@H]1C(=O)N[C@@H](Cc1ccccc1)C(N)=O)[C@@H](C)CC)[C@@H](C)O)C(C)C)[C@@H](C)CC)C(C)C [CF-Ctn[15-34]] (5FAM-KKRLKKIFKKPMVIGVTIPF-NH2) | > 200 | > 200 | 4.23 ± 1.02 | >200 | >200 | >200 |  |  |  |  |  |
| KKRLKKIFKKPMVIGVTIPF-NH2 [Ctn[15-34]] | > 200 | > 200 | 4.76 ± 1.56 | >200 | >200 | >200 |  |  |  |  |  |
| WRRRYRRWRRRRRWRRRPRR-NH2 [vCPP2319] | 20.6 ± 2.1 | 5.02 ± 1.04 | 1.22 ± 0.52 | >200 | >200 | >200 |  |  |  |  |  |

Source: article PMC7509492, “To What Extent Do Fluorophores Bias the Biological Activity of Peptides? A Practical Approach Using Membrane-Active Peptides as Models” (Frontiers in Bioengineering and Biotechnology, 2020)
